Measured values taken from ChEMBL document CHEMBL5331077, “Combining pharmacophore models derived from DNA-encoded chemical libraries with structure-based exploration to predict Tankyrase 1 inhibitors” (Eur J Med Chem, 2023).
Calls of active or inactive are those of the source. The rule behind the calls is not given here.

What was measured:
[1] = target: T1, Protein mono-ADP-ribosyltransferase PARP8 (Homo sapiens) (UniProt Q8N3A8); assay: Inhibition of PARP8 (unknown origin)
T1 sequence (whole entry): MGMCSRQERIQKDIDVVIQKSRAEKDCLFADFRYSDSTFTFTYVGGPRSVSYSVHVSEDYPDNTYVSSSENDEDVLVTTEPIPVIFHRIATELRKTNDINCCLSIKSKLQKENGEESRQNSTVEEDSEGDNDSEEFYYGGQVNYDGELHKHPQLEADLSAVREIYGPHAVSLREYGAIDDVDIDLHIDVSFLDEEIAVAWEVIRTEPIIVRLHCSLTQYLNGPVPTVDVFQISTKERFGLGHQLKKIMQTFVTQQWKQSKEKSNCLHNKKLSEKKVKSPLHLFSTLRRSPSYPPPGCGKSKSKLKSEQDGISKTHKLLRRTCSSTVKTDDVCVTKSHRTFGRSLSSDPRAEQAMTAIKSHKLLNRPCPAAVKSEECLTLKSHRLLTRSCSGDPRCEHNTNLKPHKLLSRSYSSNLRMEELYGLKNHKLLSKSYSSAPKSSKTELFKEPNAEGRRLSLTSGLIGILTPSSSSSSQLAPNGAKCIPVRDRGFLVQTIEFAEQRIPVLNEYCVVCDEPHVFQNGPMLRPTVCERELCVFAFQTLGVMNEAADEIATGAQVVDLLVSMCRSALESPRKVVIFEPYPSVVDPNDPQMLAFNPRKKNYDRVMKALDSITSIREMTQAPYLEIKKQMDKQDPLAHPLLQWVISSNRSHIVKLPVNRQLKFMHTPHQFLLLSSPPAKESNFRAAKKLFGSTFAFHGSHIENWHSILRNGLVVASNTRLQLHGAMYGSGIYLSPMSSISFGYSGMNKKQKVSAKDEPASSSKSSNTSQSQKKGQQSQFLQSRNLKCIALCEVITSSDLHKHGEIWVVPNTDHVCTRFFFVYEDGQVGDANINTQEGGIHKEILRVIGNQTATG

[2] = target: T2, Poly [ADP-ribose] polymerase tankyrase-1 (Homo sapiens, UniProt O95271); assay: Inhibition of TNKS1 (unknown origin) using biotinylated NAD as substrate preincubated for 30 mins followed by substrate addition and measured after 1 hr by BioTek synergy 2 microplate reader analysis
T2 sequence (O95271 whole entry): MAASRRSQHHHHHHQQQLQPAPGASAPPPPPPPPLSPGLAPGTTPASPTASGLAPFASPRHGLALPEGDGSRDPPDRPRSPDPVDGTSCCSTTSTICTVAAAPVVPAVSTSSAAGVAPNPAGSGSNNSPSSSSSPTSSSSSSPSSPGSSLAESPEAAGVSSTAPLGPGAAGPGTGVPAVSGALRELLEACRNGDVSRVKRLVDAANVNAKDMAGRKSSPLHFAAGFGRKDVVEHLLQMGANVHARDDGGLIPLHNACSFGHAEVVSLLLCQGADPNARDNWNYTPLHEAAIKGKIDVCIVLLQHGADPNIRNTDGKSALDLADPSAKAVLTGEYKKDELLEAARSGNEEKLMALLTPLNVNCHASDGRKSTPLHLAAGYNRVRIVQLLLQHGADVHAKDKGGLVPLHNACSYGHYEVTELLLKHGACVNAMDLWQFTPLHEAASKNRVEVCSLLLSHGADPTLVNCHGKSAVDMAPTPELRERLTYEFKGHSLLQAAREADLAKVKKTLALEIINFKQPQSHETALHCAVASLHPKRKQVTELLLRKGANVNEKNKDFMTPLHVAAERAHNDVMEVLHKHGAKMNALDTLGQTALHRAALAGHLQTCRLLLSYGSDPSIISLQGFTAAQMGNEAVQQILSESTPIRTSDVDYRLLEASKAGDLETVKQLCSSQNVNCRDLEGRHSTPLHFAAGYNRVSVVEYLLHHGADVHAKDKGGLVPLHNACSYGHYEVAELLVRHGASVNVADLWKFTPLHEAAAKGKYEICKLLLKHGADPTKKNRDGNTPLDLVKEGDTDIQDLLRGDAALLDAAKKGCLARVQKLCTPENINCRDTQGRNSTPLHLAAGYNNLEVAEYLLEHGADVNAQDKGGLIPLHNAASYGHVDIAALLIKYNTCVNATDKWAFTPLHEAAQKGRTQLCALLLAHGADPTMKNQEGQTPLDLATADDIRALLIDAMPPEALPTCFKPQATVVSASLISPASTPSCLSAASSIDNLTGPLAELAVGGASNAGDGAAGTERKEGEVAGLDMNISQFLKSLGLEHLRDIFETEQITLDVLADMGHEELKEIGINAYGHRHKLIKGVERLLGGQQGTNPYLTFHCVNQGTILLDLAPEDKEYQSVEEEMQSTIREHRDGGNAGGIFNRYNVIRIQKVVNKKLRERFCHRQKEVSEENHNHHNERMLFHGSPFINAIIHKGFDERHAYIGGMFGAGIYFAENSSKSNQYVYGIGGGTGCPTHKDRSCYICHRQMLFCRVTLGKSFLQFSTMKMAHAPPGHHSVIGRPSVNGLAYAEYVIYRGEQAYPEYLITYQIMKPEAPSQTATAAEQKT

[3] = target: Protein mono-ADP-ribosyltransferase PARP14 (Homo sapiens) (UniProt Q460N5); assay: Inhibition of PARP14 (unknown origin)
Chain of Protein mono-ADP-ribosyltransferase PARP14 (Homo sapiens) (Q460N5 whole entry): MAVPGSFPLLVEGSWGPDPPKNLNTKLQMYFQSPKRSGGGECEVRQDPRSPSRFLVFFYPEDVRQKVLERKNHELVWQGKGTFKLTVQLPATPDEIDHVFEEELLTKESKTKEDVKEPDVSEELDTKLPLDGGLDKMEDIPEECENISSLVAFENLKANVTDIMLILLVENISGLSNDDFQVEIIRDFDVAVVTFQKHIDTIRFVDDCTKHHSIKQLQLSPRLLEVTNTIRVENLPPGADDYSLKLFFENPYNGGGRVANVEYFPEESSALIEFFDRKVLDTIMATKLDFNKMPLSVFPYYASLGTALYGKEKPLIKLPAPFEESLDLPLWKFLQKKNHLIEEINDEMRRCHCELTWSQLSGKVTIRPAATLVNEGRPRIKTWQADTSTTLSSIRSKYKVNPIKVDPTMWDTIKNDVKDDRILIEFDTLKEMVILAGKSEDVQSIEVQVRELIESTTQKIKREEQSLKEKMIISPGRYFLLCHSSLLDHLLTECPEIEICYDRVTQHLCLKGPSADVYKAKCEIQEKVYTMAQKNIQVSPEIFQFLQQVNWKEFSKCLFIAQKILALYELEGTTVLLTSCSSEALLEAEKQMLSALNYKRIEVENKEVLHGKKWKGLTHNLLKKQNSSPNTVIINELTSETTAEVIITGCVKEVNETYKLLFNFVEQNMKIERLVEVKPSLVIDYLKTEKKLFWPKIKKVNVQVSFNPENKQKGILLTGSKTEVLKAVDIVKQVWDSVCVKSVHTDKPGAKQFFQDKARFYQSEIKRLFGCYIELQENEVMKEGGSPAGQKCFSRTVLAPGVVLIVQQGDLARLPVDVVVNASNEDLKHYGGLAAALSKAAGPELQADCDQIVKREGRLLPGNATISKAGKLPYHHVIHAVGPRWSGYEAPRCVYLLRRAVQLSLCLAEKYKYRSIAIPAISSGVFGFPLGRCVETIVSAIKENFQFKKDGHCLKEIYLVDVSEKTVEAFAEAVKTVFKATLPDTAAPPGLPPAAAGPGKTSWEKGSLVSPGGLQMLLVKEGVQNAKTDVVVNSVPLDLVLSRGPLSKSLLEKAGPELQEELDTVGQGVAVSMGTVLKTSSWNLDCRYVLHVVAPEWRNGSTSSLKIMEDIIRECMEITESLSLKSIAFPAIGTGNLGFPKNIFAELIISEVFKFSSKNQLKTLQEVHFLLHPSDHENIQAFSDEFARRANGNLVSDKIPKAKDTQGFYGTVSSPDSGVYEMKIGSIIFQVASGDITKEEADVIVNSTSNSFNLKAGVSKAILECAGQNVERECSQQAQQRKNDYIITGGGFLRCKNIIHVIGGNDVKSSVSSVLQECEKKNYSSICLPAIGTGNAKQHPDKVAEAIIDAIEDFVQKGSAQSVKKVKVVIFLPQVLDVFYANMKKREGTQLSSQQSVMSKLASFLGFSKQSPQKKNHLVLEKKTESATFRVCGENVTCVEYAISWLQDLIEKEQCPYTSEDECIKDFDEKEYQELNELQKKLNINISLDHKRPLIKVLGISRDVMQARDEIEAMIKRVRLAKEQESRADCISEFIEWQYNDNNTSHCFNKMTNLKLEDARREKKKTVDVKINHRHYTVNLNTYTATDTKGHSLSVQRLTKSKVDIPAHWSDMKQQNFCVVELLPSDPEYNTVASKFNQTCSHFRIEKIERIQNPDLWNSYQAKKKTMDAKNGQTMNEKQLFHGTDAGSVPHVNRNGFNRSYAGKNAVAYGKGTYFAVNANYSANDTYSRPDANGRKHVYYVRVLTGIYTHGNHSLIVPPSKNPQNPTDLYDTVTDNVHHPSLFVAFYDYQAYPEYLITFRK

[4] = target: T3, Protein mono-ADP-ribosyltransferase TIPARP (Homo sapiens) (UniProt Q7Z3E1); assay: Inhibition of PARP7 (unknown origin)
T3 sequence (whole entry): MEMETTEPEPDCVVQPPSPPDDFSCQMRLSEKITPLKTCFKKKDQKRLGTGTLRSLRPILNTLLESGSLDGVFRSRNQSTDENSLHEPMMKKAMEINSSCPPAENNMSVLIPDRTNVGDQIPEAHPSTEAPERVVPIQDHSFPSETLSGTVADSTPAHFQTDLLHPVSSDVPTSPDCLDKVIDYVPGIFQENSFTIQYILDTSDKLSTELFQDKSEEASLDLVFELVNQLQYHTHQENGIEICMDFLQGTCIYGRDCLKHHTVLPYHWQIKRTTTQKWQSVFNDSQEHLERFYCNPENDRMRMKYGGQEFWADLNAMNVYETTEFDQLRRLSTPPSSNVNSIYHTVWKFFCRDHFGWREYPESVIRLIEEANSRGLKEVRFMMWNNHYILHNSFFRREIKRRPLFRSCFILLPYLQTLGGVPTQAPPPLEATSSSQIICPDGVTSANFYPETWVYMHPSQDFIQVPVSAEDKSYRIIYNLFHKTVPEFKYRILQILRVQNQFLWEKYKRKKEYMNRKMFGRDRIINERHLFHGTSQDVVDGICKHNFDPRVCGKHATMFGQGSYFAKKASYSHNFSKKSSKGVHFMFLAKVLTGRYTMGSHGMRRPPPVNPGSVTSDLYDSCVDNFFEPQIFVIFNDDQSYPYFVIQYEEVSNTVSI

SMILES | inhibition [1] | IC50 [2] | inhibition [3] | inhibition [4]
Cc1cc(OCC(=O)NCCNC(=O)c2cccc(COc3ccccc3C(N)=O)c2)c2c3c(c(=O)oc2c1)CCC3 | inactive | 2 nM | inactive | inactive
CNC(=O)[C@H](CNC(=O)CCn1c(=O)[nH]c(=O)c2ccccc21)NC(=O)c1cnc2ccccc2c1 | inactive | 0.8 nM | inactive | inactive
